Results published in US20250011299A1, “PYRIDAZINYL AMINO DERIVATIVES AS ALK5 INHIBITORS” (CHIESI FARMACEUTICI S.P.A., priority 2021, published 2025).
pKi: −log10 of the molar value.

What follows are compounds tested against T1, human ALK5 (Homo sapiens, UniProt P36897) (assay: ADP-GLO Kinases assay of ALK5 enzymatic activity). Details: purified recombinant human ALK5, TGFβ1 peptide substrate, pIC50 converted to pKi by Cheng-Prusoff, high ATP protocol (15 μM) for very potent compounds, 25° C.
T1 construct: human ALK5 (recombinant TGF β1 N-term GST-tagged, 80-end); GST (N); purchased
T1 sequence (P36897 80-503 limits assumed): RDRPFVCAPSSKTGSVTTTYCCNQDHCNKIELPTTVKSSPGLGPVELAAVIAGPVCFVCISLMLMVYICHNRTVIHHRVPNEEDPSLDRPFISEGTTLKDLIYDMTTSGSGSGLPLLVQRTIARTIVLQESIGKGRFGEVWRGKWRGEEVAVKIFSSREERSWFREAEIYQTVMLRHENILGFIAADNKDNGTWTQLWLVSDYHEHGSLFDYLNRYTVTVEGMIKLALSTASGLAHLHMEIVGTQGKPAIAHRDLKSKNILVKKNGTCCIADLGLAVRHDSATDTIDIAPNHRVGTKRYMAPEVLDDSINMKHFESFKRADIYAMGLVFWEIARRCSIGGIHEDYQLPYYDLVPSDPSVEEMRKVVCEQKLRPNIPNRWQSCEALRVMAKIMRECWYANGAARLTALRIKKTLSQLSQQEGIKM
Type: biochemical
Method in brief: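 Purified ALK5 preincubated 15 min with compound, then reacted with substrate and ATP; ADP formed read by ADP-Glo luminescence after 120 min or 60 min reaction, all steps at 25° C. 11-point concentration-response; pIC50 converted to pKi via Cheng-Prusoff.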

`CN1CCN([C@H]2C[C@@H](C(=O)Nc3cc(Nc4cc(-c5cc(Cl)ccc5F)nnc4N(C)C)ccn3)C2)CC1` [Example 97, cis N-(4-{[6-(5-chloro-2-fluorophenyl)-3-(dimethylamino)pyridazin-4-yl]amino}pyridin-2-yl)-3-(4-methylpiperazin-1-yl)cyclobutane-1-carboxamide] and `CN1CCN([C@H]2C[C@H](C(=O)Nc3cc(Nc4cc(-c5cc(Cl)ccc5F)nnc4OC4CCOC4)ccn3)C2)CC1` (single isomer, unassigned) [Example 112, N-(4-{[6-(5-chloro-2-fluorophenyl)-3-(oxolan-3-yloxy)pyridazin-4-yl]amino}pyridin-2-yl)-3-(4-methylpiperazin-1-yl)cyclobutane-1-carboxamide] cannot be ordered by pKi: at least 10.00 for the first, at least 10.00 for the second.

`CN1CCN([C@H]2C[C@@H](C(=O)Nc3cc(Nc4cc(-c5cc(Cl)ccc5F)nnc4SCCO)ccn3)C2)CC12CC2` [Example 90, Cis N-(4-{[6-(5-chloro-2-fluorophenyl)-3-[(2-hydroxyethyl)sulfanyl]pyridazin-4-yl]amino}pyridin-2-yl)-3-{4-methyl-4,7-diazaspiro[2.5]octan-7-yl}cyclobutane-1-carboxamide] and `O=C(Nc1cc(Nc2cc(-c3cc(Cl)ccc3F)nnc2SCCO)ccn1)[C@H]1C[C@@H](N2CCN(C3CC3)CC2)C1` [Example 160, Cis N-(4-{[6-(5-chloro-2-fluorophenyl)-3-[(2-hydroxyethyl)sulfanyl]pyridazin-4-yl]amino}pyridin-2-yl)-3-(4-cyclopropylpiperazin-1-yl)cyclobutane-1-carboxamide] cannot be ordered by pKi: at least 10.00 for the first, at least 10.00 for the second.

`COC(=O)c1sc(Nc2cc(Nc3cc(-c4cc(Cl)ccc4F)nnc3SCCO)ccn2)cc1C1CCN(C)CC1` [Example 92, methyl 5-[(4-{[6-(5-chloro-2-fluorophenyl)-3-[(2-hydroxyethyl)sulfanyl]pyridazin-4-yl]amino}pyridin-2-yl)amino]-3-(1-methylpiperidin-4-yl)thiophene-2-carboxylate] and `CN1CCN([C@@H]2CC[C@H](C(=O)Nc3cc(Nc4cc(-c5cc(Cl)ccc5F)nnc4SCCO)ccn3)C2)CC1` (single isomer, unassigned; enantiomer 1) [Example 188, Cis Enantiomer 1 N-(4-{[6-(5-chloro-2-fluorophenyl)-3-[(2-hydroxyethyl)sulfanyl]pyridazin-4-yl]amino}pyridin-2-yl)-3-(4-methylpiperazin-1-yl)cyclopentane-1-carboxamide] cannot be ordered by pKi: at least 10.00 for the first, at least 10.00 for the second.

First: C[C@@H]1CN(CCC(=O)Nc2cc(Nc3cc(-c4cc(Cl)ccc4F)nnc3SCCO)ccn2)C[C@H](C)N1 [Example 178, N-(4-{[6-(5-chloro-2-fluorophenyl)-3-[(2-hydroxyethyl)sulfanyl]pyridazin-4-yl]amino}pyridin-2-yl)-3-(3,5-dimethylpiperazin-1-yl)propanamide]
Second: C[C@@H]1CN(CC23CC(C(=O)Nc4cc(Nc5cc(-c6cc(Cl)ccc6F)nnc5SCCO)ccn4)(C2)C3)C[C@H](C)N1 [Example 191, N-(4-{[6-(5-chloro-2-fluorophenyl)-3-[(2-hydroxyethyl)sulfanyl]pyridazin-4-yl]amino}pyridin-2-yl)-3-[(3,5-dimethylpiperazin-1-yl)methyl]bicyclo[1.1.1]pentane-1-carboxamide]
The pKi of the first is higher: at least 10.00 for the first, 9.50 to 9.90 for the second. The first binds more tightly here.

`CN1CCN(CCC(=O)Nc2cc(Nc3cc(-c4cc(Cl)ccc4F)nnc3SCc3cccc(C(=O)O)c3)ccn2)CC1` [Example 196, 3-({[6-(5-chloro-2-fluorophenyl)-4-({2-[3-(4-methylpiperazin-1-yl)propanamido]pyridin-4-yl}amino)pyridazin-3-yl]sulfanyl}methyl)benzoic acid] and `CN1CCN(CCC(=O)Nc2cc(Nc3cc(-c4cc(Cl)ccc4F)nnc3N3CC(C(=O)O)C3)ccn2)CC1` [Example 99, 1-[6-(5-chloro-2-fluorophenyl)-4-({2-[3-(4-methylpiperazin-1-yl)propanamido]pyridin-4-yl}amino)pyridazin-3-yl]azetidine-3-carboxylic acid] fall in the same range of pKi: 9.50 to 9.90 for the first, 9.50 to 9.90 for the second.

First: Nc1cc(Nc2cc(-c3cc(Cl)ccc3F)nnc2OCC(F)F)ccn1 [Example 53, N4-[6-(5-chloro-2-fluorophenyl)-3-(2,2-difluoroethoxy)pyridazin-4-yl]pyridine-2,4-diamine]
Second: CSc1nnc(-c2cc(Cl)ccc2F)cc1Nc1ccnc(NC(=O)CCN2CCN(CCN)CC2)c1 [Example 20, 3-[4-(2-aminoethyl)piperazin-1-yl]-N-(4-{[6-(5-chloro-2-fluorophenyl)-3-(methylsulfanyl)pyridazin-4-yl]amino}pyridin-2-yl)propanamide]
The pKi of the first is lower: 8.50 to 9.40 for the first, at least 10.00 for the second.

`CN1CCN([C@H]2C[C@@H](C(=O)Nc3cc(Nc4cc(-c5cc(Cl)ccc5F)nnc4SCC4COC(C)(C)O4)ccn3)C2)CC1` (stereo partly drawn) [Example 115, Cis N-(4-{[6-(5-chloro-2-fluorophenyl)-3-{[(2,2-dimethyl-1,3-dioxolan-4-yl)methyl]sulfanyl}pyridazin-4-yl]amino}pyridin-2-yl)-3-(4-methylpiperazin-1-yl)cyclobutane-1-carboxamide] and `O=C(Nc1cc(Nc2cc(-c3cc(Cl)ccc3F)nnc2SCCO)ccn1)C1CC(N2CCC(F)(F)C(CO)C2)C1` (racemic) [Example 170, N-(4-{[6-(5-chloro-2-fluorophenyl)-3-[(2-hydroxyethyl)sulfanyl]pyridazin-4-yl]amino}pyridin-2-yl)-3-[4,4-difluoro-3-(hydroxymethyl)piperidin-1-yl]cyclobutane-1-carboxamide] cannot be ordered by pKi: at least 10.00 for the first, at least 10.00 for the second.

`CN1CC2CCC1CN(CC(=O)Nc1cc(Nc3cc(-c4cc(Cl)ccc4F)nnc3SCCO)ccn1)C2` (stereo not shown) [Example 82, N-(4-{[6-(5-chloro-2-fluorophenyl)-3-[(2-hydroxyethyl)sulfanyl]pyridazin-4-yl]amino}pyridin-2-yl)-2-{6-methyl-3,6-diazabicyclo[3.2.2]nonan-3-yl}acetamide] and `O=C(CN1CCCNCC1)Nc1cc(Nc2cc(-c3cc(Cl)ccc3F)nnc2SCCO)ccn1` [Example 61, N-(4-{[6-(5-chloro-2-fluorophenyl)-3-[(2-hydroxyethyl)sulfanyl]pyridazin-4-yl]amino}pyridin-2-yl)-2-(1,4-diazepan-1-yl)acetamide] cannot be ordered by pKi: at least 10.00 for the first, at least 10.00 for the second.

`CN1CCCN(CC(=O)Nc2cc(Nc3cc(-c4cc(Cl)ccc4F)nnc3OC3CCOC3)ccn2)CC1` (single isomer, unassigned) [Example 73, N-(4-{[6-(5-chloro-2-fluorophenyl)-3-(oxolan-3-yloxy)pyridazin-4-yl]amino}pyridin-2-yl)-2-(4-methyl-1,4-diazepan-1-yl)acetamide] and `CN1CCN(CCC(=O)Nc2cc(Nc3cc(-c4cc(Cl)ccc4F)nnc3N(C)CC3(C)CCOC3=O)ccn2)CC1` (single isomer, unassigned) [Example 128, N-(4-{[6-(5-chloro-2-fluorophenyl)-3-{methyl[(3-methyl-2-oxooxolan-3-yl)methyl]amino}pyridazin-4-yl]amino}pyridin-2-yl)-3-(4-methylpiperazin-1-yl)propanamide] cannot be ordered by pKi: at least 10.00 for the first, at least 10.00 for the second.

Compound `C[C@@H]1CN(CCC(=O)Nc2cc(Nc3cc(-c4cc(Cl)ccc4F)nnc3SCC[Si](C)(C)C)ncn2)C[C@H](C)N1` [Example 195, N-(6-{[6-(5-chloro-2-fluorophenyl)-3-{[2-(trimethylsilyl)ethyl]sulfanyl}pyridazin-4-yl]amino}pyrimidin-4-yl)-3-(3,5-dimethylpiperazin-1-yl)propanamide] has a pKi of 9.50 to 9.90.
